“Also recorded” adds a separate entry of the source.
Columns and labels:
[1] = tested on: intestine lumen / technetium pertechnetate active transport
jejunal mucosa [2] = conditions: intraluminal, after 12.5 Gy TBI
Experimental: To exclude a role of simple diffusion ("leakage") of the tracer through the irradiated GI mucosa studies of the intestinal permeability with ^67 Ga-citrate complex introduced into the jejunal lumen at 84 hours after exposure to 12.5 Gy were performed.
In order to evaluate if ^99m TcO^-4 absorption remains an active transport process in irradiated animals rather than passive diffusion or "leakage" phenomenon, studies were performed on irradiated gut permeability with ^67 Ga citrate complex.

jejunal mucosa [3] = conditions: literature, cited from earlier work
[4] = tested on: intestine lumen / technetium pertechnetate active transport; conditions: mouse, in vivo; cited from earlier work
mouse jejunal mucosa = experiment: Dynamic enteroscintigraphy of jejunal absorption of ^99m TcO^-4 after total body irradiation; type: in vivo, C3Hf/Kam mice; conditions: for effect of irradiation on intestinal absorption: 4, 6, 8 and 12.5 Gy TBI
Description: The effect of irradiation on pertechnetate (^99m TcO^-4) absorption in the mouse jejunum was studied in situ following single acute total body irradiation (TBI) with 4 Gy, 6 Gy, 8 Gy, and 12.5 Gy. During irradiation, three unanesthetized mice were placed in a 20×20×3.5 cm air-ventilated plastic jig and exposed to a single-source ^60 Co irradiator (Theratron 780-C) at a dose rate of […], with open irradiation field and 71 cm SSD. This setting assured homogeneous dose distribution within ±3% error.
Four to five mice per irradiation dose of 4 Gy, 6 Gy, 8 Gy and 12.5 Gy per day after irradiation (6 Gy irradiated group) were studied for the intestinal absorption function. The mice were fasted overnight (waster ad libitum) and then anesthetized with 100 μL of 1.5 mg/g ketamine solution injected intraperitoneally. The procedure began with a short midline incision of the abdomen after onset of deep anesthesia, and a 3 cm segment of the upper jejunum was identified, ligated with cotton sutures and catheterized with 0.2 mm flexible plastic catheter.
Next, the abdomen incision was closed with cotton sutures and the mouse was positioned under the collimated detector so the 1.5 cm window of the collimator was viewed at the heart projection with 0.2 cm skin-to-collimator distance. A 100 μL physiologic solution containing 100 μCi of Na(^99m TcO4) was rapidly injected through the catheter into the proximal end of the isolated jejunal segment with complete filling of the entire segment.
The absorption rate of ^99m TcO^-4 from the site of injection into the circulation was recorded automatically by measuring the relative radioactivity build-up rate above the heart projection with the frequency of two measurements per second. The entire dynamic enteroscintigraphy procedure took about 15 minutes in control mice. The systemic absorption of the pertechnetate (^99m TcO^-4) was performed on a standard scintillation radiometer combined with a multichannel analyzer (Ludlum Measurements, Sweetwater, Tex.) to record the radiometry data in time-dependent fashion. The software ULTIMA-4 was used to receive the graphic imaging of the dynamic radiometry data.
Measured activity/time curves detected above the heart are mathematically modeled as exponential saturation of the form y(t)=y0+dy {1-exp[-k(t-t0)]}; where y(t) is the observed time-dependent radioactive counts above the heart; y0 is the observed activity at time of tracer introduction, t0; dy is the magnitude of the change in radioactive counts after tracer introduction; and k is the rate constant characteristic of the active transport of tracer through the intestinal wall into the systemic blood circulation. Analyses of tracer absorption kinetics by this expression allow precise statistical assessment of radiation-induced functional impairment of the jejunal active transport process.

[5] = literature, cited from earlier work
jejunal crypts = experiment: Jejunal microcolony assay (surviving crypts); type: in vivo, C3H mice; conditions: 3.5 days, vs control
Experimental: (§1) At 3.5 days after irradiation with 4, 6, 8 and 12.5 Gy and immediately upon completion of the absorption study, groups of 4-5 mice per radiation dose were killed by cervical dislocation and a 2-cm length of jejunum was removed for histological preparation. Intestinal segments were fixed in 10% neutral buffered formalin. Four transverse sections of intestine were prepared embedded into paraffin, cut at a thickness of 4 μm and stained with hematoxylin and eosin (H&E). Slides with tissue sections were examined with light microscopy under 400-power magnification. A total of 500 crypt cells per mouse form 12-16 complete crypts were scored as mitotic or apoptotic. The jejunum microcolony assay of H. R. Withers et al., J. Rad. Biol., 17, 261 (1970) was used to quantify jejunal crypt survival. Tissue sections were scored microscopically using 100-power magnification. Surviving crypts contained at least 10 tightly packed columnar epithelial cells located in the base of the crypt (discrete cell microcolonies). The number of surviving crypts/circumference of jejunum was plotted as a function of radiation dose in Gy.
(§2) C3H female mice, 11-13 weeks of age, were used in this study.
(§3) The dynamic enteroscintigraphy with ^99m Tc-pertechnetate and the morphology studies were performed as described above in Example 1.

[6] = Toxicity of 9-aminocamptothecin; conditions: single 2 mg/kg 9-AC intramuscular injection
jejunum of C3H mice = conditions: mouse, in vivo, 2 mg/kg
Experimental: as §2, §3

[7] = general statement; cited from earlier work
jejunal mucosa [8] = type: in vivo, C3H mice; conditions: 2 mg/kg 9-AC + 4 Gy TBI, day 3.5
Experimental: as §1, §2, §3

intestinal villi = type: in vivo, C3H mice; conditions: 9-AC (4 mg/kg), 3.5 days
Experimental: as §1, §2, §3

## [131IH] [^131 Iodine, iodine-131]
[1]; mouse, in vivo
  shape of intestinal absorption curve / active transport kinetics: same shape of the ^99m TcO^-4 intestinal absorption curve was obtained

## O=C([O-])CC(O)(CC(=O)[O-])C(=O)[O-].[67Ga+3] [^67 Ga-citrate]
Jejunal mucosa [2]
  jejunal mucosa permeability: jejunal mucosa stays impermeable
Jejunal mucosa [3]; inflammation or local hyperthermia
  accumulation in the sites of lesion: augments ^67 Ga-citrate accumulation in the sites of lesion
Jejunal mucosa [3]; normal
  crossing of the intestinal epithelial barrier: normally does not cross the intestinal epithelial barrier

## [K+].[O-][Cl+3]([O-])([O-])[O-] [KClO4, potassium perchlorate]
[1]; mouse, in vivo
  shift of the saturation point on the radioactivity/time curve: shifted the saturation point on the radioactivity/time curve to the right without changes in the amount of the absorbed tracer
[4]
  competitive inhibition of technetium pertechnetate active transport: known competitive inhibitor

## technetium pertechnetate [^99m TcO^-4]
[1]; control mice
  intestinal absorption into the bloodstream: Rapid absorption
Mouse jejunal mucosa
  effect of irradiation on intestinal absorption: substantial dose-dependent decrease in the absorption function; also recorded: significantly decreases ^99m TcO^-4 jejunal absorption
Mouse jejunal mucosa; listed as 99m Technetium-pertechnetate
  effect of irradiation on intestinal absorption: decreased in a dose-dependent fashion
Mouse jejunal mucosa; 4 Gy TBI, 3.5 days after irradiation
  mean rate of the tracer absorption: 1.51±0.15
Mouse jejunal mucosa; 6 Gy TBI
  time of minimal absorption after irradiation: 3.5 days
  time to return of absorption rate to a normal level: about 14 days
Mouse jejunal mucosa; 6 Gy TBI, 24 hours after irradiation
  effect of irradiation on absorption function at 24 hours: significant decrease in the absorption function; also recorded: significant effect
Mouse jejunal mucosa; 12.5 Gy TBI, 3.5 days after irradiation, listed as 99m Technetium-pertechnetate
  jejunal absorption, % of the control level: ~25 % of the control level
Mouse jejunal mucosa; 3.5 days after 4 to 12.5 Gy
  correlation of decrease in absorption with cells per villus and irradiation dose: correlated with the numbers of cells per villus and the irradiation dose
Mouse jejunal mucosa; control (no irradiation)
  mean rate of the tracer absorption: 1.35±0.25
Mouse jejunal mucosa; independently of TBI doses used
  time of maximal reduction of absorption: 84 h
[5]
  metabolic activity: low metabolic activity
  radiotoxicity: one of the least radiotoxic nuclides
  γ-emission energy: 140 keV
[5]; radionuclide
  half-life: 6 h

## CC[C@@]1(O)C(=O)OCc2c1cc1n(c2=O)Cc2cc3c(N)cccc3nc2-1 [9-aminocamptothecin]
Jejunal crypts; 9-AC (2 mg/kg) plus irradiation (4 Gy)
  jejunal crypt survival: failed to show any difference in jejunal crypt survival
Jejunal crypts; 9-AC alone (2 mg/kg)
  jejunal crypt survival: failed to show any difference in jejunal crypt survival
[6]
  2 mg/kg intramuscular dose as fraction of LD10: 1/2
Jejunum of C3H mice
  mean rate of ^99m Tc-pertechnetate intestinal absorption: significantly delayed
[7]
  GI toxicity: pronounced GI toxicity
Jejunal mucosa [8]
  additive decrease in absorption vs number of apoptotic cells in the jejunal mucosa: correlates well with the number of apoptotic cells in the jejunal mucosa
Intestinal villi
  cell loss on the intestinal villi: maximal cell loss on the intestinal villi
